These results are taken from patent publication US9546157B2, “Asymmetric piperidinyl-substituted ureas as medicines” (Helsinn Healthcare SA, priority 2014, dated 2017).

Data set [1] concerns C57BL/6J mice. The data set can be described thus: Food intake test in mouse (GHSR1a antagonists). It is filed as in vivo. The following applies: for inhibition in vivo at 10 mg/kg / inhibition in vivo at 30 mg/kg: Mus musculus. On the procedure: Male C57BL/6J mice, 18-22 g body weight, were fasted overnight (16 h before compound administration) and placed in a regular light dark cycle (6:00-18:00 light/18:00-6:00 dark). After 1 wk acclimation, animals were sorted into two groups (n=6 each, 2 per cage) based on body weight. Animals in group one were be treated with vehicle and animals in group 2 were treated with the test agent (n=6 for each group). The cumulative food intake was evaluated at 1, 2, 4, 8 and 24 hrs after drug or vehicle treatment. Food intake was measured by subtracting uneaten food from the initial premeasured food.

The nature of data set [2]: Metabolic Stability (M = Mouse). It is filed as in vitro ADME.
The target of data set [3] is T1, GHSR1a (Homo sapiens, UniProt Q92847).
T1 construct: expressed in transfected cells; host or cells: HEK293
The experiment in a line: Calcium FLIPR assay, GHSR-1a antagonism (reduction of ghrelin response). It is filed as cell-based. The conditions noted are these: HEK293/GHSR1a cells, ghrelin 10 nM. Summed up: (§1)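 Calcium dye-loaded HEK293/GHSR1a cells were monitored by FLIPR fluorescence for 2 min after additions at t=20 s. For antagonist mode, compound was co-added with ghrelin (10 nM) and scored by lowering the ghrelin signal. Agonist mode added compound alone; EC50 and IC50 came from dose-response data.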

The nature of data set [4]: Metabolic Stability (H = Human). It is filed as in vitro ADME.
The target in data set [5] is T1, GHSR1a. The experiment in a line: Calcium FLIPR assay, GHSR-1a agonism. The following applies: HEK293/GHSR1a cells. It is filed as cell-based. The arrangement: Emax: unit not given here. A digest of the protocol: as §1

What is called IC50 is the midpoint of a concentration-inhibition curve. The term EC50 denotes the concentration that produces a half-maximal response. One may read the inhibition in vivo as the percentage by which the read-out fell short of the control.

T1 sequence (Q92847 whole entry): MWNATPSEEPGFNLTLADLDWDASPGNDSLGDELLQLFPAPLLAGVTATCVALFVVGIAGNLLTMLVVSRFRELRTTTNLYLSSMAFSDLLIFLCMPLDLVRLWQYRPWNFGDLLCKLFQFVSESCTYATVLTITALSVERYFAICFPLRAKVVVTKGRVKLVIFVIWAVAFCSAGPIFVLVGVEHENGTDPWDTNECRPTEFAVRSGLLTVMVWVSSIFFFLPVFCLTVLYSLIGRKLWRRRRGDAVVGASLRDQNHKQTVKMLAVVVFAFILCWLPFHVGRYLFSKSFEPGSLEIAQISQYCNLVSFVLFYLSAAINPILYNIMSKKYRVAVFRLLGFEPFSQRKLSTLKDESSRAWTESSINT

Turning to `CC(NC(=O)N(C)C1CCN(C)CC1)c1ccc(-c2cccnc2)c(Cl)c1Cl` (stereo not drawn) [Compound H0496, 3-(1-(2,3-dichloro-4-(pyridin-3-yl)phenyl)ethyl)-1-methyl-1-(1-methylpiperidin-4-yl)urea], the “Mouse Food Intake, result in words” value in data set [1] (i.p. 10 mg/kg) is “NSE (10 mg/kg)”. For the same compound, the “Metabolic Stability M” value in data set [2] is “High”. In data set [3], the half-maximal inhibitory concentration (IC50) turned out to be 10 nM. Moreover, the “Metabolic Stability H” value in data set [4] was “Medium”. In data set [5], the 50% effective concentration (EC50) is more than 30000 nM.

`CCC(NC(=O)N(C)C1CCN(C)CC1)c1ccc(-c2cnccn2)c(Cl)c1Cl` (stereo not drawn) [Compound H0829, 3-(1-(2,3-dichloro-4-(pyrazin-2-yl)phenyl)propyl)-1-methyl-1-(1-methylpiperidin-4-yl)urea]: the “Mouse Food Intake, result in words” value in data set [1] (PO 10 mg/kg + ANA (ANAM) 30 mg/kg mice) was “PO 10 mg/kg + ANA 30 mg/kg mice: NSE”. The “Metabolic Stability M” value in data set [2] is listed as “High H High M”. For the same compound, the IC50 in data set [3] was 3 nM. Also, in data set [4], the “Metabolic Stability H” value is “High H High M”. For the same compound, the concentration giving a half-maximal response (EC50) in data set [5] is more than 30000 nM.

With `CC(NC(=O)N(C)C1CCN(C)CC1)c1ccc(-c2cn[nH]c2)c(Cl)c1Cl` (stereo not drawn) [Compound H0499, 3-(1-(2,3-dichloro-4-(1H-pyrazol-4-yl)phenyl)ethyl)-1-methyl-1-(1-methylpiperidin-4-yl)urea], the “Mouse Food Intake, result in words” value in data set [1] (i.p. 30 mg/kg) was “NSE (30 mg/kg)”. Further, the “Metabolic Stability M” value in data set [2] is reported as “Medium H Medium M”. Besides, in data set [3], the IC50 came out at 12 nM. Also, in data set [4], the “Metabolic Stability H” value is on record as “Medium H Medium M”. In addition, the EC50 in data set [5] is more than 30000 nM.

For `CC(NC(=O)N(C)C1CCN(C)CC1)c1ccc(C2CC2)c(Cl)c1Cl` (stereo not drawn) [Compound H0494, 3-(1-(2,3-dichloro-4-cyclopropylphenyl)ethyl)-1-methyl-1-(1-methylpiperidin-4-yl)urea], in data set [1] (i.p., dose not given), the “Mouse Food Intake, result in words” value is “No Effect”. For the same compound, the “Metabolic Stability M” value in data set [2] is listed as “High”. Further, in data set [3], the IC50 came to 52 nM. In addition, the “Metabolic Stability H” value in data set [4] is reported as “Medium”. In data set [5], the half-maximal effective concentration (EC50) was determined as 66 nM and the Emax worked out at 2996.

On to `CC(NC(=O)N(C)C1CCN(C)CC1)c1ccc(-c2ccccc2)c(Cl)c1Cl` (stereo not drawn) [Compound H0509, 3-(1-(2,3-dichloro-[1,1′-biphenyl]-4-yl)ethyl)-1-methyl-1-(1-methylpiperidin-4-yl)urea], for which the inhibition in vivo at 10 mg/kg in data set [1] (ip, 1 h, i.p. 10 mg/kg) came out at 66%. In addition, the “Metabolic Stability M” value in data set [2] is reported as “High H High M”. Besides, in data set [3], the IC50 was 29 nM. Besides, the “Metabolic Stability H” value in data set [4] is on record as “High H High M”. In addition, in data set [5], the 50% effective concentration (EC50) is 2000 nM and the Emax stood at 1790.

For the compound `CC(NC(=O)N(C)C1CCN(C)CC1)c1ccc(-c2ccc(C(N)=O)s2)c(Cl)c1Cl` (stereo not drawn) [Compound H0691, 5-(2,3-dichloro-4-(1-(3-methyl-3-(1-methylpiperidin-4-yl)ureido)ethyl)phenyl)thiophene-2-carboxamide], at 10 mg/kg the inhibition in vivo in data set [1] (ip, 2 h, i.p. 10 mg/kg) was 62%. Moreover, in data set [1] (PO, dose not given), the “Mouse Food Intake, result in words” value was “not active”. In data set [2], the “Metabolic Stability M” value is given as “High H High M”. The IC50 in data set [3] was found to be 5 nM. In data set [4], the “Metabolic Stability H” value is listed as “High H High M”. Further, the EC50 in data set [5] is more than 30000 nM.

`C#Cc1ccc(C(C)NC(=O)N(C)C2CCN(C)CC2)c(Cl)c1Cl` (single isomer, unassigned) [Compound H0678, 3-(1-(2,3-dichloro-4-ethynylphenyl)ethyl)-1-methyl-1-(1-methylpiperidin-4-yl)urea] showed an inhibition in vivo at 10 mg/kg in data set [1] (ip, 1 h, i.p. 10 mg/kg) of 78%. For the same compound, in data set [1] (PO, dose not given), the “Mouse Food Intake, result in words” value is listed as “no effect”. In data set [2], the “Metabolic Stability M” value is listed as “Medium H Medium M”. Further, the half-maximal inhibitory concentration (IC50) in data set [3] came to 55 nM. In addition, the “Metabolic Stability H” value in data set [4] is “Medium H Medium M”. For the same compound, the concentration giving a half-maximal response (EC50) in data set [5] was more than 30000 nM.

In data set [1] (ip, 1 h, i.p. 10 mg/kg), `CC(NC(=O)N(C)C1CCN(C)CC1)c1ccc(C#CC2CC2)c(Cl)c1Cl` (stereo not drawn) [Compound H0764, 3-(1-(2,3-dichloro-4-(cyclopropylethynyl)phenyl)ethyl)-1-methyl-1-(1-methylpiperidin-4-yl)urea] yielded an inhibition in vivo at 10 mg/kg of 91%. The compound further displayed an inhibition in vivo at 30 mg/kg in data set [1] (po, 2 h, PO 30 mg/kg) of 70%. In addition, the inhibition in vivo at 30 mg/kg in data set [1] (sc, 1 h, SC 30 mg/kg) was determined as 53%. Also, the “Metabolic Stability M” value in data set [2] is “High H High M”. Further, the half-inhibitory concentration (IC50) in data set [3] was determined as 10 nM. The “Metabolic Stability H” value in data set [4] is recorded as “High H High M”. For the same compound, in data set [5], the 50% effective concentration (EC50) is 14 nM and the Emax is reported as 1352.

The compound `CC(NC(=O)N(C)C1CCN(C)CC1)c1ccc(C#Cc2nccs2)c(Cl)c1Cl` (stereo not drawn) [Compound H0754, 3-(1-(2,3-dichloro-4-(thiazol-2-ylethynyl)phenyl)ethyl)-1-methyl-1-(1-methylpiperidin-4-yl)urea] had an inhibition in vivo at 10 mg/kg in data set [1] (ip, 1 h, i.p. 10 mg/kg) of 74%. For the same compound, the “Mouse Food Intake, result in words” value in data set [1] (PO + ANA (ANAM), mice, dose not given) is “no effect”; in data set [1] (PO, dose not given), “no effect”. Besides, the “Metabolic Stability M” value in data set [2] is given as “High H High M”. Also, the IC50 in data set [3] is 11 nM. Besides, the “Metabolic Stability H” value in data set [4] is recorded as “High H High M”. Further, the EC50 in data set [5] was more than 30000 nM.

The compound `CC(NC(=O)N(C)C1CCN(C)CC1)c1ccc(-c2cccc(N)c2)c(Cl)c1Cl` (stereo not drawn) [Compound H0510, 3-(1-(3′-amino-2,3-dichloro-[1,1′-biphenyl]-4-yl)ethyl)-1-methyl-1-(1-methylpiperidin-4-yl)urea] displayed an inhibition in vivo at 30 mg/kg in data set [1] (ip, 4 h, i.p. 30 mg/kg) of 35%. Moreover, the “Metabolic Stability M” value in data set [2] is “High H High M”. For the same compound, the IC50 in data set [3] was 14 nM. Moreover, the “Metabolic Stability H” value in data set [4] was “High H High M”. In data set [5], the EC50 was more than 30000 nM.

As for `CN1CCC(N(O)C(=O)NC(CC2CC2)c2ccc(-c3cnccn3)c(Cl)c2Cl)CC1` (stereo not drawn) [Compound H0761, 3-(2-cyclopropyl-1-(2,3-dichloro-4-(pyrazin-2-yl)phenyl)ethyl)-1-hydroxy-1-(1-methylpiperidin-4-yl)urea], the inhibition in vivo at 10 mg/kg in data set [1] (ip, 1 h, i.p. 10 mg/kg) came out at 63%. The “Mouse Food Intake, result in words” value in data set [1] (PO, dose not given) is “NSE”; in data set [1] (PO, fasted mice, dose not given), “No activity”; in data set [1] (fed mice, route not clear) it was “No activity”. This compound returned an FI increase in data set [1] (PO, fed mice) of 215%. Moreover, in data set [2], the “Metabolic Stability M” value is “High H High M”. Also, the IC50 in data set [3] was 0.2 nM. Moreover, the “Metabolic Stability H” value in data set [4] is “High H High M”. Moreover, the EC50 in data set [5] turned out to be 3 nM. In addition, the Emax in data set [5] turned out to be 2907.

As to `CC(NC(=O)N(C)C1CCN(C)CC1)c1ccc(C#Cc2ccsc2)c(Cl)c1Cl` (stereo not drawn) [Compound H0759, 3-(1-(2,3-dichloro-4-(thiophen-3-ylethynyl)phenyl)ethyl)-1-methyl-1-(1-methylpiperidin-4-yl)urea], the inhibition in vivo at 10 mg/kg in data set [1] (ip, 1 h, i.p. 10 mg/kg) is 85%. For the same compound, the “Mouse Food Intake, result in words” value in data set [1] (PO, dose not given) is reported as “no effect”. The “Metabolic Stability M” value in data set [2] is recorded as “High H High M”. Also, the IC50 in data set [3] came to 7 nM. Further, in data set [4], the “Metabolic Stability H” value is recorded as “High H High M”. In data set [5], the 50% effective concentration (EC50) was more than 30000 nM.

`CC(NC(=O)N(C)C1CCN(C)CC1)c1ccc(-c2ncccn2)c(Cl)c1Cl` (stereo not drawn) [Compound H0619, 3-(1-(2,3-dichloro-4-(pyrimidin-2-yl)phenyl)ethyl)-1-methyl-1-(1-methylpiperidin-4-yl)urea]: the inhibition in vivo at 10 mg/kg in data set [1] (ip, 1 h, i.p. 10 mg/kg) was determined as 34%; in data set [1] (ip, 2 h, i.p. 10 mg/kg), 34%. Also, the “Metabolic Stability M” value in data set [2] is on record as “High H High M”. Also, the IC50 in data set [3] turned out to be 13 nM. For the same compound, the “Metabolic Stability H” value in data set [4] is listed as “High H High M”. Further, the EC50 in data set [5] worked out at 39 nM.
